Experimental findings from ChEMBL document CHEMBL6177955, “Design, synthesis and biological evaluation of Golgi-targeting anion transporters as inducers of Golgiphagy and apoptosis in cancer cells” (Eur J Med Chem, 2025) are described below.

pIC50: −log10 of the molar value. Activity calls are given as the source filed them. The calls are words filed in the database; no cut-off is given here.

Test [1] deals with Lipid bilayer. The experiment in a line: Vesicular anionophoric activity in large unilamellar vesicle membrane derived from egg-yolk L-alpha-phosphatidylcholine assessed as induction of relative efflux of chloride ions measured up to 300 seconds by using chloride-selective electrode.
Test [2] has as its system Lipid bilayer. In words: Vesicular anionophoric activity in large unilamellar vesicle membrane derived from egg-yolk L-alpha-phosphatidylcholine assessed as induction of relative efflux of chloride ions in presence of lithium (Li+) measured up to 300 seconds by using chloride-selective electrode. The note with it: time <= 300.0 sec.
The subject of test [3] is Lipid bilayer. In words: Vesicular anionophoric activity in large unilamellar vesicle membrane derived from egg-yolk L-alpha-phosphatidylcholine assessed as induction of relative efflux of chloride ions in presence of sodium (Na+) measured up to 300 seconds by using chloride-selective electrode. The note with it: time <= 300.0 sec.
The test system of test [4] is Lipid bilayer. In words: Vesicular anionophoric activity in large unilamellar vesicle membrane derived from egg-yolk L-alpha-phosphatidylcholine assessed as induction of relative efflux of chloride ions in presence of potassium (K+) measured up to 300 seconds by using chloride-selective electrode. The note with it: time <= 300.0 sec.
Test [5] has as its system Lipid bilayer. In words: Vesicular anionophoric activity in large unilamellar vesicle membrane derived from egg-yolk L-alpha-phosphatidylcholine assessed as induction of relative efflux of chloride ions in presence of rubidium (Rb+) measured up to 300 seconds by using chloride-selective electrode. The note with it: time <= 300.0 sec.
Test [6] has as its system Lipid bilayer. The experiment in a line: Vesicular anionophoric activity in large unilamellar vesicle membrane derived from egg-yolk L-alpha-phosphatidylcholine assessed as induction of relative efflux of chloride ions in presence of cesium (Cs+) measured up to 300 seconds by using chloride-selective electrode. The note with it: time <= 300.0 sec.
In test [7] the test system is Lipid bilayer. In words: Vesicular anionophoric activity in Bulky nitrobenzene membrane assessed as induction of relative efflux of chloride ions measured up to 100 hrs by using chloride-selective electrode.
The test system of another test is A2780. In words: Antiproliferative activity against human A2780 cells by MTT assay. The class given is functional, cell-based.
The subject of test [8] is HepG2. The experiment in a line: Antiproliferative activity against human HepG2 cells by MTT assay. The class given is functional, cell-based.
Another test has as its system MCF7. In words: Antiproliferative activity against human MCF7 cells by MTT assay. The class given is functional, cell-based.
The next test concerns HT-29. In words: Antiproliferative activity against human HT-29 cells by MTT assay. The class given is functional, cell-based.
The next test relates to HCT-8. The experiment in a line: Antiproliferative activity against human HCT-8 cells by MTT assay. The class given is functional, cell-based.
Test [9] has as its system HepG2. In words: Disruption of homeostasis of chloride anions in golgi apparatus of human HepG2 cells assessed as increase in fluorescence intensity of 6-methoxy-1-(2-oxo-2-((4-sulfamoylphenyl)amino)ethyl)quinolin-1-ium Bromide at 50 uM measured after 12 hts by CLSM imaging analysis. The class given is functional, cell-based.
The test system of test [10] is HepG2. In words: Suppression of Golgi structural and functional protein expression in human HepG2 cells assessed as decrease in GM130 protein expression at 5 to 20 uM measured after 48 hrs incubation by Western blot analysis. The format is cell-based. The note with it: dose 5-20 µM.
In test [11] the test system is HepG2. The experiment in a line: Suppression of Golgi structural and functional protein expression in human HepG2 cells assessed as decrease in GRASP55 protein expression at 5 to 20 uM measured after 48 hrs incubation by Western blot analysis. The format is cell-based. The note with it: dose 5-20 µM.
Test [12] concerns HepG2. The experiment in a line: Induction of chloride ion influx in human HepG2 cells assessed as effect on lysosomal chloride anions at […] measured after 12 hrs incubation by chloride-sensitive dye MQAE-MP based CLSM imaging analysis. The format is functional, cell-based.
The test system of test [13] is HepG2. The experiment in a line: Induction of apoptosis in human HepG2 cells assessed as viable cells at 5 uM measured after 24 hrs incubation by Propidium iodide/Annexin V-FITC analysis (reference value: 90.2%). The note with it: read-out: Activity. The class given is functional.
Test [14] has as its system HepG2. The experiment in a line: Induction of apoptosis in human HepG2 cells assessed as early apoptotic cells at 5 uM measured after 24 hrs incubation by Propidium iodide/Annexin V-FITC analysis (reference value: 2.90%). The format is functional.
Test [15] deals with HepG2. In words: Induction of apoptosis in human HepG2 cells assessed as late apoptotic cells at 5 uM measured after 24 hrs incubation by Propidium iodide/Annexin V-FITC analysis (reference value: 5.71%). The format is functional.
Test [16] has as its system HepG2. The experiment in a line: Induction of apoptosis in human HepG2 cells assessed as necrotic cells at 5 uM measured after 24 hrs incubation by Propidium iodide/Annexin V-FITC analysis (reference value: 1.14%). The format is functional.

Regarding `COc1ccc(Nc2c(NCCCCCC(=O)Nc3ccc(S(N)(=O)=O)cc3)c(=O)c2=O)cc1`, the EC50 in the test on Lipid bilayer [1] was greater than 10 mol%. Further, the result in the test on Lipid bilayer [2], in the test with Lipid bilayer [3], in the test with Lipid bilayer [4], in the test with Lipid bilayer [5], in the test on Lipid bilayer [6] and with HepG2 [11] was Active. Besides, the Activity result with Lipid bilayer [7] is reported as “Active; Compound Exhibit Anion Transport Activity Most Probably Through Carrier Mechanism”. The pIC50 in the test on A2780 was less than 4.30; in the test with HepG2 [8], 4.38; in the test with MCF7, 4.40; with HT-29, 4.31; with HCT-8 it was 4.35. The result with HepG2 [9] and in the test on HepG2 [10] was inactive.

Turning to `COc1ccc2c(ccc[n+]2CC(=O)Nc2ccc(S(N)(=O)=O)cc2)c1`, the result with HepG2 [12] was Active.

With `NS(=O)(=O)c1ccc(NC(=O)CCCCCNc2c(Nc3cc([N+](=O)[O-])cc([N+](=O)[O-])c3)c(=O)c2=O)cc1`, the EC50 in the test with Lipid bilayer [1] is given as 3.08 mol%. Also, the outcome in the test on Lipid bilayer [2], with Lipid bilayer [3], in the test with Lipid bilayer [4], in the test with Lipid bilayer [5] and in the test on Lipid bilayer [6] was Active. Besides, the Activity entry with Lipid bilayer [7] is listed as “Active; Compound Exhibit Anion Transport Activity Most Probably Through Carrier Mechanism”. The pIC50 with A2780, in the test on HepG2 [8], in the test on MCF7, in the test with HT-29 and with HCT-8 was less than 4.30 each time.

Regarding `NS(=O)(=O)c1ccc(NC(=O)CCCCCNc2c(Nc3ccc([N+](=O)[O-])cc3)c(=O)c2=O)cc1`, the EC50 with Lipid bilayer [1] is reported as 2.86 mol%. In addition, the outcome in the test on Lipid bilayer [2], in the test on Lipid bilayer [3], in the test on Lipid bilayer [4], with Lipid bilayer [5] and in the test on Lipid bilayer [6] was Active. The Activity result with Lipid bilayer [7] is listed as “Active; Compound Exhibit Anion Transport Activity Most Probably Through Carrier Mechanism”. The pIC50 in the test with A2780, in the test on HepG2 [8], with MCF7, in the test with HT-29 and with HCT-8 was less than 4.30 throughout.

For the compound `NS(=O)(=O)c1ccc(NC(=O)CCCCCNc2c(Nc3ccc(C(F)(F)F)cc3)c(=O)c2=O)cc1`, the EC50 with Lipid bilayer [1] is recorded as 2.93 mol%. The outcome with Lipid bilayer [2], in the test on Lipid bilayer [3], in the test on Lipid bilayer [4], in the test with Lipid bilayer [5] and in the test on Lipid bilayer [6] was Active. For the same compound, the Activity entry in the test with Lipid bilayer [7] was “Active; Compound Exhibit Anion Transport Activity Most Probably Through Carrier Mechanism”. Moreover, the negative logarithm of the IC50 (pIC50) is 4.68 with A2780; 4.57 in the test on HepG2 [8]; less than 4.30 in the test on MCF7; 4.61 in the test on HT-29; 4.72 with HCT-8.

Consider `Cc1ccc(Nc2c(NCCCCCC(=O)Nc3ccc(S(N)(=O)=O)cc3)c(=O)c2=O)cc1`, for which the EC50 in the test with Lipid bilayer [1] was greater than 10 mol%. Also, the outcome in the test on Lipid bilayer [2], in the test with Lipid bilayer [3], in the test on Lipid bilayer [4], in the test with Lipid bilayer [5] and in the test with Lipid bilayer [6] was Active. In addition, in the test with Lipid bilayer [7], the Activity entry was “Active; Compound Exhibit Anion Transport Activity Most Probably Through Carrier Mechanism”. In addition, the negative logarithm of the IC50 (pIC50) was less than 4.30 with A2780; 4.44 with HepG2 [8]; 4.48 in the test with MCF7; 4.32 with HT-29; 4.49 in the test with HCT-8.

Take `COc1cccc2c1C(=O)c1c(O)c3c(c(O)c1C2=O)C[C@@](O)(C(=O)CO)C[C@@H]3O[C@H]1C[C@H](N)[C@H](O)[C@H](C)O1.Cl` [DOXORUBICIN HYDROCHLORIDE]: the pIC50 with A2780 was 5.99; in the test with HepG2 [8], 6.24; in the test with MCF7, 6.49; with HT-29, 5.91; with HCT-8, 5.92. Also, the viability at 5 µM in the test on HepG2 [13] worked out at 58.5%. Moreover, the values for the Activity in the test with HepG2 [14], with HepG2 [15] and in the test with HepG2 [16] were 16.8%, 20.7% and 3.96%, respectively.

For the compound `NS(=O)(=O)c1ccc(NC(=O)CCCCCNc2c(Nc3ccc(Br)cc3)c(=O)c2=O)cc1`, the EC50 in the test on Lipid bilayer [1] is 3.06 mol%. The result with Lipid bilayer [2], in the test with Lipid bilayer [3], with Lipid bilayer [4], with Lipid bilayer [5] and with Lipid bilayer [6] was Active. In addition, in the test with Lipid bilayer [7], the Activity entry is listed as “Active; Compound Exhibit Anion Transport Activity Most Probably Through Carrier Mechanism”. In addition, the pIC50 with A2780 is 4.31; in the test with HepG2 [8], 4.44; with MCF7 it was 4.81; with HT-29, 4.73; with HCT-8, 4.39.

For the compound `N#Cc1ccc(Nc2c(NCCCCCC(=O)Nc3ccc(S(N)(=O)=O)cc3)c(=O)c2=O)cc1`, in the test with Lipid bilayer [1], the EC50 came out at 4.57 mol%. The result in the test with Lipid bilayer [2], with Lipid bilayer [3], in the test with Lipid bilayer [4], in the test on Lipid bilayer [5] and in the test with Lipid bilayer [6] was Active. Besides, the Activity result in the test with Lipid bilayer [7] is reported as “Active; Compound Exhibit Anion Transport Activity Most Probably Through Carrier Mechanism”. For the same compound, the pIC50 is less than 4.30 in the test with A2780; 4.42 in the test on HepG2 [8]; 4.43 in the test with MCF7; 4.35 in the test on HT-29; 4.50 with HCT-8.

With `NS(=O)(=O)c1ccc(NC(=O)CCCCCNc2c(Nc3ccc(Cl)cc3)c(=O)c2=O)cc1`, the EC50 in the test on Lipid bilayer [1] stood at 5.78 mol%. The result in the test with Lipid bilayer [2], in the test on Lipid bilayer [3], with Lipid bilayer [4], in the test on Lipid bilayer [5] and in the test with Lipid bilayer [6] was Active. In the test with Lipid bilayer [7], the Activity result is reported as “Active; Compound Exhibit Anion Transport Activity Most Probably Through Carrier Mechanism”. Besides, the negative-log IC50 (pIC50) in the test on A2780 is less than 4.30; in the test on HepG2 [8], 4.50; with MCF7, 4.63; with HT-29, 4.47; in the test on HCT-8, 4.59.

Turning to `NS(=O)(=O)c1ccc(NC(=O)CCCCCNc2c(Nc3cc(Cl)cc(Cl)c3)c(=O)c2=O)cc1`, the EC50 with Lipid bilayer [1] is 3.44 mol%. Moreover, the result in the test with Lipid bilayer [2], in the test with Lipid bilayer [3], in the test on Lipid bilayer [4], with Lipid bilayer [5] and with Lipid bilayer [6] was Active. Moreover, the Activity entry in the test on Lipid bilayer [7] is recorded as “Active; Compound Exhibit Anion Transport Activity Most Probably Through Carrier Mechanism”. Further, the pIC50 in the test with A2780 was less than 4.30; in the test with HepG2 [8] it was 4.69; in the test on MCF7, less than 4.30; in the test on HT-29, 4.39; with HCT-8, 4.41.

In the case of `NS(=O)(=O)c1ccc(NC(=O)CCCCCNc2c(Nc3ccc(F)cc3)c(=O)c2=O)cc1`, the EC50 with Lipid bilayer [1] was 3.76 mol%. For the same compound, the result in the test with Lipid bilayer [2], in the test with Lipid bilayer [3], with Lipid bilayer [4], with Lipid bilayer [5] and in the test with Lipid bilayer [6] was Active. Also, the Activity result with Lipid bilayer [7] was “Active; Compound Exhibit Anion Transport Activity Most Probably Through Carrier Mechanism”. Also, the negative logarithm of the IC50 (pIC50) with A2780 was less than 4.30; in the test on HepG2 [8], 4.47; in the test with MCF7 it was 4.52; with HT-29, 4.38; in the test with HCT-8, 4.44.
